{
  "source": "patent US10793580B2",
  "about": "“Substituted pyrazoloazepin-8-ones and their use as phosphodiesterase inhibitors” (LEO Pharma A/S, priority 2016, dated 2020)",
  "data": [
    {"target": "human PDE4D catalytic domain (Homo sapiens (Human), UniProt Q08499)", "sequence (Q08499 380-740)": "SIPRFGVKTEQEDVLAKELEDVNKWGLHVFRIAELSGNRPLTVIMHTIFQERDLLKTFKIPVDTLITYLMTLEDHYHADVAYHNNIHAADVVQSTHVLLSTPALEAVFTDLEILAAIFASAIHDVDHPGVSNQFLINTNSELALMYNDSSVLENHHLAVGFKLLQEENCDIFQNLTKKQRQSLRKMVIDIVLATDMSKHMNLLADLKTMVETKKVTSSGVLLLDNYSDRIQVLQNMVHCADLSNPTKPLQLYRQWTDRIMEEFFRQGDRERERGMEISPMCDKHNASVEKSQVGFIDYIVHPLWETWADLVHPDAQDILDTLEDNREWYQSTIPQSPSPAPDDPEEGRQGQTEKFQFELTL", "assay": "PDE4 Assay (TR-FRET, FAM-cAMP cleavage)", "format": "biochemical", "details": "Table 16, Examples 277-296; read-out: PDE4 IC50 range", "summary_of_the_method": "(§1)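 PDE4D catalytic domain (S380-L740) incubated briefly with unlabelled cAMP plus FAM-cAMP and titrated compound. Reaction stopped with binding buffer holding metal-ion nanoparticles that bind AMP phospho groups and Tb donor, and AMP formation read by TR-FRET. IC50 versus controls, reported as ranges (nM).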", "units": {"IC50": "nM"}, "values": [
      {"smiles": "CCn1nc(C[C@@H](C)COC(=O)c2cc(C)n(C)n2)c2c1C(=O)NCC1(CCOCC1)C2", "note": "[Example 289, [(2R)-3-(1-ethyl-8-oxo-spiro[6,7-dihydro-4H-pyrazolo[3,4-c]azepine-5,4′-tetrahydropyran]-3-yl)-2-methyl-propyl] 1,5-dimethylpyrazole-3-carboxylate]", "IC50": "< 100"}
    ]},
    {"target": "human PDE4D catalytic domain (Homo sapiens (Human), UniProt Q08499)", "assay": "PDE4 Assay (TR-FRET, FAM-cAMP cleavage)", "format": "biochemical", "details": "Table 17, Examples 297-316; read-out: PDE4 IC50 range", "summary_of_the_method": "as §1", "units": {"IC50": "nM"}, "values": [
      {"smiles": "CCn1nc(CC(C)(C)COC(=O)c2ccns2)c2c1C(=O)NCC1(CCOCC1)C2", "note": "[Example 303, [3-(1-ethyl-8-oxo-spiro[6,7-dihydro-4H-pyrazolo[3,4-c]azepine-5,4′-tetrahydro-pyran]-3-yl)-2,2-dimethyl-propyl] isothiazole-5-carboxylate]", "IC50": "< 100"},
      {"smiles": "CCn1nc(CC(C)(C)COC(=O)c2cscn2)c2c1C(=O)NCC1(CCOCC1)C2", "note": "[Example 305, [3-(1-ethyl-8-oxo-spiro[6,7-dihydro-4H-pyrazolo[3,4-c]azepine-5,4′-tetrahydro-pyran]-3-yl)-2,2-dimethyl-propyl] thiazole-4-carboxylate]", "IC50": "< 100"}
    ]},
    {"target": "human PDE4D catalytic domain (Homo sapiens (Human), UniProt Q08499)", "assay": "PDE4 Assay (TR-FRET, FAM-cAMP cleavage)", "format": "biochemical", "details": "human PDE4D catalytic domain (UniProt Q08499 [S380-L740]); 50% inhibition of substrate cleavage; read-out: PDE4 IC50 range", "summary_of_the_method": "as §1", "units": {"IC50": "nM"}, "values": [
      {"smiles": "CCn1nc(CCCOC(=O)c2cc(Cl)ccc2C)c2c1C(=O)NCC1(CCOCC1)C2", "note": "[Example 44, 3-(1-ethyl-8-oxo-spiro[6,7-dihydro-4H-pyrazolo[3,4-c]azepine-5,4′-tetrahydropyran]-3-yl)propyl 5-chloro-2-methyl-benzoate]", "IC50": "< 100"},
      {"smiles": "CCn1nc(CCCOC(=O)C2CN(C(C)=O)C2)c2c1C(=O)NCC1(CCOCC1)C2", "note": "[Example 252, 3-(1-ethyl-8-oxo-spiro[6,7-dihydro-4H-pyrazolo[3,4-c]azepine-5,4′-tetrahydropyran]-3-yl)propyl 1-acetylazetidine-3-carboxylate]", "IC50": "100 to 500"},
      {"smiles": "CCn1nc(C[C@@H](C)COC(=O)c2ccc(S(=O)(=O)C(C)C)cc2)c2c1C(=O)NCC1(CCOCC1)C2", "note": "[Example 160, [(2R)-3-(1-ethyl-8-oxo-spiro[6,7-dihydro-4H-pyrazolo[3,4-c]azepine-5,4′-tetrahydropyran]-3-yl)-2-methyl-propyl] 4-isopropylsulfonylbenzoate]", "IC50": "< 100"},
      {"smiles": "CCn1nc(CC(C)(C)COC(=O)c2ccc(S(=O)(=O)N3CCN(C(C)=O)CC3)cc2)c2c1C(=O)NCC1(CCOCC1)C2", "note": "[Example 216, [3-(1-ethyl-8-oxo-spiro[6,7-dihydro-4H-pyrazolo[3,4-c]azepine-5,4′-tetrahydropyran]-3-yl)-2,2-dimethyl-propyl] 4-(4-acetylpiperazin-1-yl)sulfonylbenzoate]", "IC50": "< 100"},
      {"smiles": "CCn1nc(CCCOC(=O)c2ccc(C(F)(F)F)c(C(F)(F)F)c2)c2c1C(=O)NCC1(CCOCC1)C2", "note": "[Example 98, 3-(1-ethyl-8-oxo-spiro[6,7-dihydro-4H-pyrazolo[3,4-c]azepine-5,4′-tetrahydropyran]-3-yl)propyl 3,4-bis(trifluoromethyl)benzoate]", "IC50": "< 100"},
      {"smiles": "CCn1nc(C[C@@H](C)COC(=O)c2cccc(S(=O)(=O)N3CCN(C(C)=O)CC3)c2)c2c1C(=O)NCC1(CCOCC1)C2", "note": "[Example 166, [(2R)-3-(1-ethyl-8-oxo-spiro[6,7-dihydro-4H-pyrazolo[3,4-c]azepine-5,4′-tetrahydropyran]-3-yl)-2-methyl-propyl] 3-(4-acetylpiperazin-1-yl)sulfonylbenzoate]", "IC50": "< 100"},
      {"smiles": "CCn1nc(CCCOC(=O)c2cc(OC)cc(C(F)(F)F)c2)c2c1C(=O)NCC1(CCOCC1)C2", "note": "[Example 82, 3-(1-ethyl-8-oxo-spiro[6,7-dihydro-4H-pyrazolo[3,4-c]azepine-5,4′-tetrahydropyran]-3-yl)propyl 3-methoxy-5-(trifluoromethyl)benzoate]", "IC50": "< 100"},
      {"smiles": "CCn1nc(CC(C)(C)COC(=O)c2ccccc2C)c2c1C(=O)NCC1(CCOCC1)C2", "note": "[Example 189, [3-(1-ethyl-8-oxo-spiro[6,7-dihydro-4H-pyrazolo[3,4-c]azepine-5,4′-tetrahydropyran]-3-yl)-2,2-dimethyl-propyl] 2-methylbenzoate]", "IC50": "< 100"},
      {"smiles": "CCn1nc(CCCOC(=O)c2cc(C(F)(F)F)ccc2F)c2c1C(=O)NCC1(CCOCC1)C2", "note": "[Example 73, 3-(1-ethyl-8-oxo-spiro[6,7-dihydro-4H-pyrazolo[3,4-c]azepine-5,4′-tetrahydro-pyran]-3-yl)propyl 2-fluoro-5-(trifluoromethyl)benzoate]", "IC50": "< 100"},
      {"smiles": "CCn1nc(CCCOC(=O)C2CCS(=O)(=O)CC2)c2c1C(=O)NCC1(CCOCC1)C2", "note": "[Example 262, 3-(1-ethyl-8-oxo-spiro[6,7-dihydro-4H-pyrazolo[3,4-c]azepine-5,4′-tetrahydro-pyran]-3-yl)propyl 1,1-dioxothiane-4-carboxylate]", "IC50": "< 100"},
      {"smiles": "CCn1nc(CCCOC(=O)c2ccc(C(=O)N3CCCCC3)cc2)c2c1C(=O)NCC1(CCOCC1)C2", "note": "[Example 108, 3-(1-ethyl-8-oxo-spiro[6,7-dihydro-4H-pyrazolo[3,4-c]azepine-5,4′-tetrahydro-pyran]-3-yl)propyl 4-(piperidine-1-carbonyl)benzoate]", "IC50": "< 100"},
      {"smiles": "CCn1nc(CCCOC(=O)c2cccc(S(=O)(=O)C(C)C)c2)c2c1C(=O)NCC1(CCOCC1)C2", "note": "[Example 92, 3-(1-ethyl-8-oxo-spiro[6,7-dihydro-4H-pyrazolo[3,4-c]azepine-5,4′-tetrahydropyran]-3-yl)propyl 3-isopropylsulfonylbenzoate]", "IC50": "< 100"},
      {"smiles": "CCn1nc(CCCCOC(=O)C(C)C)c2c1C(=O)NCC1(CCOCC1)C2", "note": "[Example 121, 4-(1-ethyl-8-oxo-spiro[6,7-dihydro-4H-pyrazolo[3,4-c]azepine-5,4′-tetrahydropyran]-3-yl)butyl 2-methyl-propanoate]", "IC50": "< 100"},
      {"smiles": "CCn1nc(CCCCOC(=O)c2ccc(S(=O)(=O)N(C)C)cc2)c2c1C(=O)NCC1(CCOCC1)C2", "note": "[Example 132, 4-(1-ethyl-8-oxo-spiro[6,7-dihydro-4H-pyrazolo[3,4-c]azepine-5,4′-tetrahydropyran]-3-yl)butyl 4-(dimethyl-sulfamoyl)benzoate]", "IC50": "< 100"},
      {"smiles": "CCn1nc(CCCOC(=O)c2ccns2)c2c1C(=O)NCC1(CCOCC1)C2", "note": "[Example 242, 3-(1-ethyl-8-oxo-spiro[6,7-dihydro-4H-pyrazolo[3,4-c]azepine-5,4′-tetrahydropyran]-3-yl)propyl isothiazole-5-carboxylate]", "IC50": "< 100"},
      {"smiles": "CCn1nc(C[C@@H](C)COC(=O)c2cccc(OC)c2)c2c1C(=O)NCC1(CCOCC1)C2", "note": "[Example 150, [(2R)-3-(1-ethyl-8-oxo-spiro[6,7-dihydro-4H-pyrazolo[3,4-c]azepine-5,4′-tetrahydropyran]-3-yl)-2-methyl-propyl] 3-methoxybenzoate]", "IC50": "< 100"},
      {"smiles": "CCn1nc(CCCOC(=O)c2cc(OC)ccc2F)c2c1C(=O)NCC1(CCOCC1)C2", "note": "[Example 37, 3-(1-ethyl-8-oxo-spiro[6,7-dihydro-4H-pyrazolo[3,4-c]azepine-5,4′-tetrahydropyran]-3-yl)propyl 2-fluoro-5-methoxy-benzoate]", "IC50": "< 100"},
      {"smiles": "CCn1nc(CCCOC(=O)c2cnc(C)nc2)c2c1C(=O)NCC1(CCOCC1)C2", "note": "[Example 247, 3-(1-ethyl-8-oxo-spiro[6,7-dihydro-4H-pyrazolo[3,4-c]azepine-5,4′-tetrahydropyran]-3-yl)propyl 2-methylpyrimidine-5-carboxylate]", "IC50": "< 100"},
      {"smiles": "CCn1nc(CC(C)(C)COC(=O)c2ccc(S(=O)(=O)N(C)Cc3ccccc3)cc2)c2c1C(=O)NCC1(CCOCC1)C2", "note": "[Example 214, [3-(1-ethyl-8-oxo-spiro[6,7-dihydro-4H-pyrazolo[3,4-c]azepine-5,4′-tetrahydropyran]-3-yl)-2,2-dimethyl-propyl] 4-[benzyl(methyl)sulfamoyl] benzoate]", "IC50": "< 100"},
      {"smiles": "CCn1nc(CCCCOC(=O)c2ccc(C(C)=O)cc2)c2c1C(=O)NCC1(CCOCC1)C2", "note": "[Example 126, 4-(1-ethyl-8-oxo-spiro[6,7-dihydro-4H-pyrazolo[3,4-c]azepine-5,4′-tetrahydropyran]-3-yl)butyl 4-acetylbenzoate]", "IC50": "< 100"},
      {"smiles": "CCn1nc(CC(C)(C)COC(=O)c2ccc(C(=O)N3CCN(C)CC3)cc2)c2c1C(=O)NCC1(CCOCC1)C2", "note": "[Example 224, [3-(1-ethyl-8-oxo-spiro[6,7-dihydro-4H-pyrazolo[3,4-c]azepine-5,4′-tetrahydro-pyran]-3-yl)-2,2-dimethyl-propyl] 4-(4-methyl-piperazine-1-carbonyl)-benzoate]", "IC50": "< 100"},
      {"smiles": "CCn1nc(CCCOC(=O)c2ccc(S(C)(=O)=O)cc2)c2c1C(=O)NCC1(CCOCC1)C2", "note": "[Example 3, 3-(1-Ethyl-8-oxo-spiro[6,7-dihydro-4H-pyrazolo[3,4-c]azepine-5,4′-tetrahydropyran]-3-yl)propyl 4-methylsulfonylbenzoate]", "IC50": "< 100"},
      {"smiles": "CCn1nc(CCCOC(=O)c2ccc(S(=O)(=O)C(C)C)cc2)c2c1C(=O)NCC1(CCOCC1)C2", "note": "[Example 93, 3-(1-ethyl-8-oxo-spiro[6,7-dihydro-4H-pyrazolo[3,4-c]azepine-5,4′-tetrahydropyran]-3-yl)propyl 4-isopropylsulfonylbenzoate]", "IC50": "< 100"},
      {"smiles": "CCn1nc(CCCOC(=O)c2cc(F)ccc2F)c2c1C(=O)NCC1(CCOCC1)C2", "note": "[Example 25, 3-(1-ethyl-8-oxo-spiro[6,7-dihydro-4H-pyrazolo[3,4-c]azepine-5,4′-tetrahydropyran]-3-yl)propyl 2,5-difluorobenzoate]", "IC50": "< 100"},
      {"smiles": "CCn1ccc(C(=O)OCCCc2nn(CC)c3c2CC2(CCOCC2)CNC3=O)n1", "note": "[Example 248, 3-(1-ethyl-8-oxo-spiro[6,7-dihydro-4H-pyrazolo[3,4-c]azepine-5,4′-tetrahydropyran]-3-yl)propyl 1-ethylpyrazole-3-carboxylate]", "IC50": "< 100"},
      {"smiles": "CCn1nc(CC(C)(C)COC(=O)c2ccc(C(C)=O)cc2)c2c1C(=O)NCC1(CCOCC1)C2", "note": "[Example 200, [3-(1-ethyl-8-oxo-spiro[6,7-dihydro-4H-pyrazolo[3,4-c]azepine-5,4′-tetrahydropyran]-3-yl)-2,2-dimethyl-propyl] 4-acetylbenzoate]", "IC50": "< 100"}
    ]}
  ]
}
